Columns and labels:
blackgrass [1] = test: Test D preemergence; type: in vivo, Alopecurus myosuroides; conditions: Alopecurus myosuroides, pre-emergence
Outline: (§1)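 Species were sown in silt loam for preemergence treatment, or grown in peat-based medium to the 1–4-leaf stage (2–18 cm) for postemergence sprays. Test chemicals were formulated in a non-phytotoxic solvent mixture with surfactant. After 7–21 days in a controlled environment, plants were rated visually against controls on a 0 (no effect) to 100 (complete control) scale.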

lambsquarters = test: Test D preemergence; type: in vivo, Chenopodium album; conditions: Chenopodium album, pre-emergence
Outline: as §1

pigweed = test: Test D preemergence; type: in vivo, Amaranthus retroflexus; conditions: Amaranthus retroflexus, pre-emergence
Outline: as §1

spring barley = test: Test D preemergence; type: in vivo, Hordeum vulgare; conditions: Hordeum vulgare, pre-emergence
Outline: as §1

winter barley = test: Test D preemergence; type: in vivo, Hordeum vulgare; conditions: Hordeum vulgare, pre-emergence
Outline: as §1

wild oat = test: Test D preemergence; type: in vivo, Avena fatua; conditions: Avena fatua, pre-emergence
Outline: as §1

bluegrass = test: Test D postemergence; type: in vivo, Poa annua; conditions: Poa annua, post-emergence, Postemergence, scale 0 to 100 (0 no effect, 100 complete control), read-out: Plant response rating, Bluegrass
Outline: as §1

blackgrass [2] = test: Test D postemergence; type: in vivo, Alopecurus myosuroides; conditions: Alopecurus myosuroides, post-emergence, Postemergence, scale 0 to 100 (0 no effect, 100 complete control), read-out: Plant response rating, Blackgrass
Outline: as §1

Italian ryegrass = test: Test D postemergence; type: in vivo, Lolium multiflorum; conditions: Lolium multiflorum, post-emergence
Outline: as §1

johnsongrass = test: Test F preemergence; type: in vivo, Sorghum halepense; conditions: 21 days, scale 0 to 100
Outline: (§2)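 Visual ratings from 0 (no effect) to 100 (complete control), scored against untreated controls after 21 days in the greenhouse. Test chemicals, formulated in a non-phytotoxic solvent blend with surfactant, were applied preemergence to seeds planted in loam soil mixed with sand.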

nutsedge, purple = test: Test F preemergence; type: in vivo, Cyperus rotundus; conditions: 21 days, scale 0 to 100
Outline: as §2

mustard, black = test: Test F preemergence; type: in vivo, Brassica nigra; conditions: 21 days, scale 0 to 100
Outline: as §2

dayflower = test: Test F preemergence; type: in vivo, Commelina virginica; conditions: 21 days, scale 0 to 100
Outline: as §2

buckwheat, wild = test: Test F preemergence; type: in vivo, Polygonum convolvulus; conditions: 21 days, scale 0 to 100
From the text: (§3) Seeds of plant species selected from bermudagrass (Cynodon dactylon), surinam grass (Brachiaria decumbens), large (Lg) crabgrass (Digitaria sanguinalis), crabgrass, naked (naked crabgrass, Digitaria nuda), foxtail, green (green foxtail, Setaria viridis), johnsongrass (Sorghum halepense), kochia (Kochia scoparia), morningglory (pitted morningglory, Ipomoea lacunosa), nutsedge, purple (purple nutsedge, Cyperus rotundus), ragweed (common ragweed, Ambrosia elatior), mustard, black (black mustard, Brassica nigra), guineagrass (Panicum maximum), dallisgrass (Paspalum dilatatum), barnyardgrass (Echinochloa crus-galli), sandbur (southern sandbur, Cenchrus echinatus), sowthistle (common sowthistle, Sonchus oleraceous), Italian ryegrass (Lolium multiflorum), signalgrass (broadleaf signalgrass, Brachiaria platyphylla), dayflower (Virginia (VA) dayflower, Commelina virginica), bluegrass (annual bluegrass, Poa annua), quackgrass (Elytrigia repens), mallow (common mallow, Malva sylvestris), buckwheat, wild (wild buckwheat, Polygonum convolvulus), leafy spurge (Euphorbia esula), chickweed (common chickweed, Stellaria media), wild poinsettia (Euphorbia heterophylla), and pigweed (Amaranthus retroflexus) were planted into a blend of loam soil and sand and treated preemergence with test chemicals formulated in a non-phytotoxic solvent mixture which included a surfactant.
(§4) Treated plants and controls were maintained in a greenhouse for 21 days, after which time all species were compared to controls and visually evaluated. Plant response ratings, summarized in Table F, are based on a scale of 0 to 100 where 0 is no effect and 100 is complete control. A dash (-) response means no test result.

chickweed = test: Test F preemergence; type: in vivo, Stellaria media; conditions: 21 days, scale 0 to 100
From the text: as §3, §4

With N#Cc1cccc(Oc2ncc(Cl)cn2)c1-n1cc(OCC(F)(F)F)cn1 [Compound 274, 3-[(5-chloro-2-pyrimidinyl)oxy]-2-[4-(2,2,2-trifluoroethoxy)-1H-pyrazol-1-yl]benzonitrile] the pest or weed control at 16 g/ha (blackgrass [1]; 16 g ai/ha, scale 0 (no effect) to 100 (complete control), read-out: Plant response rating, Blackgrass) was 10%, the pest or weed control at 31 g/ha (blackgrass [1]; 31 g ai/ha, scale 0-100, read-out: Plant response rating, Blackgrass) was 30% and the pest or weed control at 62 g/ha (blackgrass [1]; 62 g ai/ha, scale 0-100, read-out: Plant response rating, Blackgrass) was 70%. The pest or weed control at 125 g/ha (blackgrass [1]; 125 g ai/ha, scale 0-100, read-out: Plant response rating, Blackgrass) was 95%, the pest or weed control at 16 g/ha (lambsquarters; 16 g ai/ha, scale 0 (no effect) to 100 (complete control), read-out: Plant response rating, Lambsquarters) was 20% and the pest or weed control at 31 g/ha (lambsquarters; 31 g ai/ha, scale 0-100, read-out: Plant response rating, Lambsquarters) was 90%. The pest or weed control at 62 g/ha (lambsquarters; 62 g ai/ha, scale 0-100, read-out: Plant response rating, Lambsquarters) was 100%, the pest or weed control at 125 g/ha (lambsquarters; 125 g ai/ha, scale 0-100, read-out: Plant response rating, Lambsquarters) was 100% and the pest or weed control at 16 g/ha (pigweed; 16 g ai/ha, scale 0 (no effect) to 100 (complete control), read-out: Plant response rating, Pigweed) was 70%. It also gave a pest or weed control at 31 g/ha (pigweed; 31 g ai/ha, scale 0 (no effect) to 100 (complete control), read-out: Plant response rating, Pigweed) of 100%, a pest or weed control at 125 g/ha (pigweed; 125 g ai/ha, scale 0-100, read-out: Plant response rating, Pigweed) of 100% and a plant injury at 16 g/ha (spring barley; 16 g ai/ha, scale 0 (no effect) to 100 (complete control), read-out: Plant response rating, Barley, Spring) of 0%. It also gave a plant injury at 31 g/ha (spring barley; 31 g ai/ha, scale 0-100, read-out: Plant response rating, Barley, Spring) of 0%, a plant injury at 62 g/ha (spring barley; 62 g ai/ha, scale 0-100, read-out: Plant response rating, Barley, Spring) of 10% and a plant injury at 125 g/ha (spring barley; 125 g ai/ha, scale 0-100, read-out: Plant response rating, Barley, Spring) of 15%. It also gave a plant injury at 16 g/ha (winter barley; 16 g ai/ha, scale 0 (no effect) to 100 (complete control), read-out: Plant response rating, Barley, Winter) of 0%, a plant injury at 31 g/ha (winter barley; 31 g ai/ha, scale 0-100, read-out: Plant response rating, Barley, Winter) of 0% and a plant injury at 62 g/ha (winter barley; 62 g ai/ha, scale 0-100, read-out: Plant response rating, Barley, Winter) of 10%. It also gave a plant injury at 125 g/ha (winter barley; 125 g ai/ha, scale 0-100, read-out: Plant response rating, Barley, Winter) of 55%, a pest or weed control at 16 g/ha (wild oat; 16 g ai/ha, scale 0 (no effect) to 100 (complete control), read-out: Plant response rating, Oat, Wild) of 0% and a pest or weed control at 31 g/ha (wild oat; 31 g ai/ha, scale 0-100, read-out: Plant response rating, Oat, Wild) of 0%. It also gave a pest or weed control at 62 g/ha (wild oat; 62 g ai/ha, scale 0-100, read-out: Plant response rating, Oat, Wild) of 15%, a pest or weed control at 125 g/ha (wild oat; 125 g ai/ha, scale 0-100, read-out: Plant response rating, Oat, Wild) of 25% and a pest or weed control at 16 g/ha (bluegrass; 16 g ai/ha) of 20%. For the same molecule, the pest or weed control at 31 g/ha (bluegrass; 31 g ai/ha) was 25%, the pest or weed control at 62 g/ha (bluegrass; 62 g ai/ha) was 30% and the pest or weed control at 125 g/ha (bluegrass; 125 g ai/ha) was 30%. It also gave a pest or weed control at 62 g/ha (blackgrass [2]; 62 g ai/ha) of 20%, a pest or weed control at 16 g/ha (blackgrass [2]; 16 g ai/ha) of 10% and a pest or weed control at 31 g/ha (blackgrass [2]; 31 g ai/ha) of 15%. The pest or weed control at 125 g/ha (blackgrass [2]; 125 g ai/ha) was 30%, the pest or weed control at 16 g/ha (Italian ryegrass; 16 g ai/ha, scale 0-100, read-out: Plant response rating, Ryegrass, Italian) was 15% and the pest or weed control at 31 g/ha (Italian ryegrass; 31 g ai/ha, scale 0 to 100 (0 no effect, 100 complete control), read-out: Plant response rating, Ryegrass, Italian) was 25%. For the same molecule, the pest or weed control at 62 g/ha (Italian ryegrass; 62 g ai/ha, scale 0 to 100 (0 no effect, 100 complete control), read-out: Plant response rating, Ryegrass, Italian) was 35%, the pest or weed control at 125 g/ha (Italian ryegrass; 125 g ai/ha, scale 0 to 100 (0 no effect, 100 complete control), read-out: Plant response rating, Ryegrass, Italian) was 35% and the “Plant response rating, Johnsongrass” value (johnsongrass; 16 g ai/ha) was 65. For the same molecule, the “Plant response rating, Johnsongrass” value (johnsongrass; 31 g ai/ha) was 70, the “Plant response rating, Johnsongrass” value (johnsongrass; 62 g ai/ha) was 100 and the “Plant response rating, Johnsongrass” value (johnsongrass; 125 g ai/ha) was 100. For the same molecule, the “Plant response rating, Johnsongrass” value (johnsongrass; 250 g ai/ha) was 100, the “Plant response rating, Nutsedge, Purple” value (nutsedge, purple; 16 g ai/ha) was 35 and the “Plant response rating, Nutsedge, Purple” value (nutsedge, purple; 31 g ai/ha) was 50. The “Plant response rating, Nutsedge, Purple” value (nutsedge, purple; 62 g ai/ha) was 65, the “Plant response rating, Nutsedge, Purple” value (nutsedge, purple; 125 g ai/ha) was 85 and the “Plant response rating, Nutsedge, Purple” value (nutsedge, purple; 250 g ai/ha) was 98. For the same molecule, the “Plant response rating, Mustard, Black” value (mustard, black; 16 g ai/ha) was 98, the “Plant response rating, Mustard, Black” value (mustard, black; 31 g ai/ha) was 100 and the “Plant response rating, Mustard, Black” value (mustard, black; 62 g ai/ha) was 100. The “Plant response rating, Mustard, Black” value (mustard, black; 125 g ai/ha) was 100, the “Plant response rating, Mustard, Black” value (mustard, black; 250 g ai/ha) was 100 and the “Plant response rating, Dayflower, VA” value (dayflower; 16 g ai/ha) was 90. For the same molecule, the “Plant response rating, Dayflower, VA” value (dayflower; 31 g ai/ha) was 95, the “Plant response rating, Dayflower, VA” value (dayflower; 62 g ai/ha) was 98 and the “Plant response rating, Dayflower, VA” value (dayflower; 125 g ai/ha) was 100. For the same molecule, the “Plant response rating, Dayflower, VA” value (dayflower; 250 g ai/ha) was 100, the “Plant response rating, Buckwheat, Wild” value (buckwheat, wild; 16 g ai/ha) was 100 and the “Plant response rating, Buckwheat, Wild” value (buckwheat, wild; 31 g ai/ha) was 100. For the same molecule, the “Plant response rating, Buckwheat, Wild” value (buckwheat, wild; 62 g ai/ha) was 100, the “Plant response rating, Buckwheat, Wild” value (buckwheat, wild; 125 g ai/ha) was 100 and the “Plant response rating, Buckwheat, Wild” value (buckwheat, wild; 250 g ai/ha) was 100. The “Plant response rating, Chickweed” value (chickweed; 16 g ai/ha) was 98, the “Plant response rating, Chickweed” value (chickweed; 31 g ai/ha) was 98 and the “Plant response rating, Chickweed” value (chickweed; 62 g ai/ha) was 100. For the same molecule, the “Plant response rating, Chickweed” value (chickweed; 125 g ai/ha) was 100 and the “Plant response rating, Chickweed” value (chickweed; 250 g ai/ha) was 100.

Reference: US9695155B2, “Herbicidal substituted pyrimidinyloxy benzene compounds” (E. I. DU PONT DE NEMOURS AND COMPANY, priority 2013, dated 2017)
